Laboratory results reported in patent publication US20110118309A1, “USE OF HDAC INHIBITORS FOR THE TREATMENT OF HODGKIN'S DISEASE” (priority 2008, published 2011).

Experiments:
[1] = system: HD-MY-Z; assay: Single agent anti-tumor activity of LBH589 in Hodgkins Lymphoma cell lines in vitro (growth inhibition and cell kill); assay type: cell-based
From the text: (§1) Bcl2 may be a patient stratification marker
(§2) Single agent anti-tumor activity of LBH589 in Hodgkins Lymphoma cell lines in vitro is outlined in table I.

[2] = system: L-428; assay: as above; assay type: cell-based; conditions: L-428, Hodgkins Lymphoma
From the text: as §1, §2

[3] = system: RPMI 6666; assay: as above; assay type: cell-based; conditions: RPMI 6666, Hodgkins Lymphoma
From the text: as §1, §2

[4] = system: Hodgkin lymphoma cell lines, RPMI6666, HD-MY-Z, and L428; assay: Proliferation and viability of 3 Hodgkin lymphoma cell lines; assay type: cell-based; conditions: range over 3 HL cell lines; units printed in the value (picomolar, nanomolar)
From the text: as §1

[5] = system: Cell lines of mantle cell and follicular lymphoma; assay: Sensitivity of mantle cell and follicular lymphoma cell lines; assay type: cell-based
From the text: as §1

[6] = system: CTCL cell lines; assay: Sensitivity of CTCL cell lines; assay type: cell-based
From the text: as §1

[7] = system: CTCL mouse model; assay: CTCL mouse model; assay type: in vivo
From the text: as §1

[8] = system: E[…]-myc mouse lymphoma model; assay: E[…]-myc mouse lymphoma model; assay type: in vivo
From the text: as §1

[9] = Homo sapiens, read-out: IC50: Concentration of LBH589 required to inhibit growth of cell line by 50%

`Cc1[nH]c2ccccc2c1CCNCc1ccc(/C=C/C(=O)NO)cc1` [LBH589, N-hydroxy-3-[4-[[[2-(2-methyl-1H-indol-3-yl)-ethyl]-amino]methyl]phenyl]-2E-2-propenamide] was tested, and the “LD90: Concentration of LBH589 required to kill a cell line population by 90%” value ([1]; in nM) was >10,000, the IC50 ([1]; read-out: IC50: Concentration of LBH589 required to inhibit growth of cell line by 50%) was 50.8 nM and the IC50 [2, 9] was 10.5 nM. For the same compound, the LD90: Concentration of LBH589 required to kill a cell line population by 90% [2] was 57.5 nM, the IC50 [3, 9] was 0.2 nM and the “LD90: Concentration of LBH589 required to kill a cell line population by 90%” value ([3]; in nM) was 274.7. For the same compound, the IC50 [4] was 0.2 to 50 nM, the “sensitivity to LBH589” value [5] was “extreme sensitivity” and the “sensitivity to LBH589” value [6] was “extremely sensitive”. For the same compound, the tumor regression [7] was “profound tumor regression”, the regression of lymphoma [8] was “produces regression” and the survival [8] was “extends survival”.
